Test results as given in patent publication US12178842B2, “PCSK9 antagonist compounds” (MERCK SHARP & DOHME LLC, priority 2019, dated 2024).

Key:
Type in all cases: binding
PCSK9 [1] = biological target: T1, PCSK9 (Homo sapiens, UniProt Q8NBP7); test: PCSK9 Alexa FRET Standard TR-FRET assay
T1 construct: biotin (biotinylated); purchased
Experimental: A solution containing 1 nM biotinylated PCSK9+2.5 nM Lance Streptavidin Europium (Strep-Eu) is made in 50 mM HEPES pH 7.4, 0.15 M NaCl, 5 mM CaCl2, 0.01% BSA, and 0.01% Surfactant P20. A separate solution containing 40 nM of the AlexaFluor tagged cyclic peptide is made in the same buffer system. An Echo is used to transfer 0.750 ul of compound to an assay plate followed by the addition of 15 ul of PCSK9+Stept-Eu and 15 ul of AF peptide. The final assay volume is 30.750 ul containing 0.5 nM PCSK9, 1.25 nM Strep-Eu, and 20 nM AF cyclic peptide. The reaction is incubated at room temperature for at least two hours prior to fluorescence measurements using an Envision Multilabel Reader. IC50 values are determined by fitting data to a sigmoidal dose-response curve using nonlinear regression. Ki is then calculated from the Ic50 and the KD of AF cyclic peptide. Counts (B-counts) of the europium-labeled PCSK9 are followed to observe if compounds are adversely PCSK9. A fall off of the B-counts likely indicates a false positive of inhibition. Data from this procedure is reported as “A=‘numerical value’ (nanomolar)”

PCSK9 [2] = biological target: T1, PCSK9; test: PCSK9 Alexa FRET Plus TR-FRET assay
Experimental: A separate solution containing 1920 nM of the AlexaFluor tagged cyclic peptide is made in the same buffer system. […] The reaction is incubated at room temperature for at least two hours prior to fluorescence measurements using an Envision Multilabel Reader. IC50 values are determined by fitting data to a sigmoidal dose-response curve using nonlinear regression. Ki is then calculated from the Ic50 and the KD of AF cyclic peptide. Counts (B-counts) of the europium-labeled PCSK9 are followed to observe if compounds are adversely affecting PCSK9. A fall off of the B-counts is likely indicates a false positive of inhibition. Data from this procedure is reported as “P=‘numerical value’ (nanomolar)”

PCSK9 [3] = biological target: T1, PCSK9; test: PCSK9 Alexa FRET Ultra TR-FRET assay
Experimental: A separate solution containing 1920 nM of the AlexaFluor tagged cyclic peptide is made in the same buffer system. […] The reaction is incubated at room temperature for at least two hours prior to fluorescence measurements using an Envision Multilabel Reader. IC50 values are determined by fitting data to a sigmoidal dose-response curve using nonlinear regression. Ki is then calculated from the Ic50 and the KD of AF cyclic peptide. Counts (B-counts) of the europium-labeled PCSK9 are followed to observe if compounds are adversely affecting PCSK9. A fall off of the B-counts is likely indicates a false positive of inhibition. Data from this procedure is reported as “Ki Ultra=‘numerical value’ (data reported is nanomolar)”

[4] = Ki calculated from IC50 and KD of AF cyclic peptide Reagent A, 0.5 nM PCSK9, 20 nM AF cyclic peptide, read-out: Alexa FRET Stdt TR-FRET
[5] = Ki calculated from IC50 and KD of AF cyclic peptide Reagent B, 0.5 nM PCSK9, 960 nM AF cyclic peptide, read-out: Alexa FRET Plus TR-FRET
[6] = Ki Ultra, calculated from IC50 and KD of AF cyclic peptide, 0.5 nM PCSK9, 960 nM AF cyclic peptide, read-out: Alexa FRET Ultra TR-FRET

T1 sequence (Q8NBP7 153-692): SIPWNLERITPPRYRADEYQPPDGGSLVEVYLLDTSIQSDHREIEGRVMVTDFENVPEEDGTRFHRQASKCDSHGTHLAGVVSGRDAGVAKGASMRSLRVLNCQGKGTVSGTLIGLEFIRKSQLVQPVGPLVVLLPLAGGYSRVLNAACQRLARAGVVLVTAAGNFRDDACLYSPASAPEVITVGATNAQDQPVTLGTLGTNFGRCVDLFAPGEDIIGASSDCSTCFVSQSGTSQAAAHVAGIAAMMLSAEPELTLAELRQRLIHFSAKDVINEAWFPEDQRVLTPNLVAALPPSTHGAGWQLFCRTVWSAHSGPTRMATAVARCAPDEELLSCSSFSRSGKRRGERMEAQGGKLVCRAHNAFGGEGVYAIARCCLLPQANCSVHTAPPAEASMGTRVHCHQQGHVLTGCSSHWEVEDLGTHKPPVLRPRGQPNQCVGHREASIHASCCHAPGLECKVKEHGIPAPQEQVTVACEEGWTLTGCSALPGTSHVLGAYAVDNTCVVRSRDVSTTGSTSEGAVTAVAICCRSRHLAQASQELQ

Compound | Ki (PCSK9 [1]; [4]) [pM] | Ki (PCSK9 [2]; [5]) [pM] | Ki (PCSK9 [3]; [6]) [pM] | Ki (PCSK9 [1]) [pM] | Ki (PCSK9 [2]) [pM] | Ki (PCSK9 [3]) [pM]
COc1ccc(C[C@@H]2NC(=O)[C@H]([C@@H](C)O)NC(=O)[C@@H]3[C@@H]4CCN3C(=O)[C@@H]3Cc5cn(c6ccc(F)cc56)CCCCCCN(Cc5ccc(cc5)CCNC(=O)[C@]5(C)CCCN5C2=O)C(=O)CCC(=O)N[C@@H](C)C(=O)N[C@H](CNC(=O)COCCOCCNC(=O)COCCOCCNC(=O)CCOCCOCC[N+](C)(C)CCNC(=O)CCCCCCCCCCCCCCC(=O)O)C(=O)N[C@@H](Cc2cccc(c2)CNC(=O)CO4)C(=O)N3)cc1 [Ex-39] | < 1260 | < 6 | 3 | – | – | –
COc1ccc(C[C@@H]2NC(=O)[C@H]([C@@H](C)O)NC(=O)[C@@H]3[C@@H]4CCN3C(=O)[C@@H]3Cc5cn(c6ccc(F)cc56)CCCCCCN(Cc5ccc(cc5)CCNC(=O)[C@]5(C)CCCN5C2=O)C(=O)CCC(=O)N[C@@H](C)C(=O)N[C@H](CNC(=O)COCCOCCNC(=O)COCCOCCNC(=O)CC[C@H](NC(=O)CCCCCCCCCCCCCCC(=O)O)C(=O)O)C(=O)N[C@@H](Cc2cccc(c2)CNC(=O)CO4)C(=O)N3)cc1 [Ex-41] | < 1260 | < 6 | 5 | – | – | –
COc1ccc(C[C@@H]2NC(=O)[C@H]([C@@H](C)O)NC(=O)[C@@H]3[C@@H]4CCN3C(=O)[C@@H]3Cc5cn(c6ccc(F)cc56)CCCCCCN(Cc5ccc(cc5)CCNC(=O)[C@]5(C)CCCN5C2=O)C(=O)CCC(=O)N[C@@H](C)C(=O)N[C@H](CNC(=O)COCCOCC[N+](C)(C)CCOCCNC(=O)COCCOCCNC(=O)COCCOCCNC(=O)CC[C@H](NC(=O)CC[C@H](NC(=O)CCCCCCCCCCCCCCC(=O)O)C(=O)O)C(=O)O)C(=O)N[C@@H](Cc2cccc(c2)CNC(=O)CO4)C(=O)N3)cc1 [Ex-47] | < 1260 | < 6 | 3 | – | – | –
COc1ccc(C[C@@H]2NC(=O)[C@H]([C@@H](C)O)NC(=O)[C@@H]3[C@@H]4CCN3C(=O)[C@@H]3Cc5cn(c6ccc(F)cc56)CCCCCCN(Cc5ccc(cc5)CCNC(=O)[C@]5(C)CCCN5C2=O)C(=O)CCC(=O)N[C@@H](C)C(=O)N[C@H](CNC(=O)CCOCCOCC[N+](C)(C)CCNC(=O)COCCOCCNC(=O)CC[C@H](NC(=O)CC[C@H](NC(=O)CC[C@H](NC(=O)CCCCCCCCCCCCCCCCC(=O)O)C(=O)O)C(=O)O)C(=O)O)C(=O)N[C@@H](Cc2cccc(c2)CNC(=O)CO4)C(=O)N3)cc1 [Ex-48] | < 1260 | < 6 | 9 | – | – | –
COc1ccc(C[C@@H]2NC(=O)[C@H]([C@@H](C)O)NC(=O)[C@@H]3[C@@H]4CCN3C(=O)[C@@H]3Cc5cn(c6ccc(F)cc56)CCCCCCN(Cc5ccc(cc5)CCNC(=O)[C@]5(C)CCCN5C2=O)C(=O)CCC(=O)N[C@@H](C)C(=O)N[C@H](CNC(=O)CCOCCOCC[N+](C)(C)CCNC(=O)COCCOCCNC(=O)COCCOCCNC(=O)CC[C@@H](NC(=O)CC[C@@H](NC(=O)CCCCCCCCCCCCCCCCC(=O)O)C(=O)O)C(=O)O)C(=O)N[C@@H](Cc2cccc(c2)CNC(=O)CO4)C(=O)N3)cc1 [Ex-49] | – | < 6 | 3 | < 1260 | – | –
COc1ccc(C[C@@H]2NC(=O)[C@H]([C@@H](C)O)NC(=O)[C@@H]3[C@@H]4CCN3C(=O)[C@@H]3Cc5cn(c6ccc(F)cc56)CCCCCCN(Cc5ccc(cc5)CCNC(=O)[C@]5(C)CCCN5C2=O)C(=O)CCC(=O)N[C@@H](C)C(=O)N[C@H](CNC(=O)COCCOCC[N+](C)(C)CCNC(=O)COCCOCCNC(=O)COCCOCCNC(=O)CC[C@H](NC(=O)CCCCCCCCOCCCCCCCCC(=O)O)C(=O)O)C(=O)N[C@@H](Cc2cccc(c2)CNC(=O)CO4)C(=O)N3)cc1 [Ex-50] | < 1260 | – | – | – | < 6 | 5
COc1ccc(C[C@@H]2NC(=O)[C@H]([C@@H](C)O)NC(=O)[C@@H]3[C@@H]4CCN3C(=O)[C@@H]3Cc5cn(c6ccc(F)cc56)CCCCCN(Cc5ccc(cc5)CCNC(=O)[C@]5(C)CCCN5C2=O)C(=O)CCC(=O)N[C@@H](C)C(=O)N[C@H](CNC(=O)CCOCCOCC[N+](C)(C)CCNC(=O)COCCOCCNC(=O)COCCOCCNC(=O)CC[C@H](NC(=O)CC[C@H](NC(=O)CCCCCCCCCCCCCCCCC(=O)O)C(=O)O)C(=O)O)C(=O)N[C@@H](Cc2cccc(c2)CNC(=O)CO4)C(=O)N3)cc1 [Ex-51] | < 1260 | – | – | – | 7 | 5
COc1ccc(C[C@@H]2NC(=O)[C@H]([C@@H](C)O)NC(=O)[C@@H]3[C@@H]4CCN3C(=O)[C@@H]3Cc5cn(c6ccc(F)cc56)CCCCCCN(Cc5ccc(cc5)CCNC(=O)[C@]5(C)CCCN5C2=O)C(=O)CCC(=O)N[C@@H](C)C(=O)N[C@H](CNC(=O)COCCOCCNC(=O)CC[C@H](NC(=O)CCOCCOCC[N+](C)(C)CCNC(=O)COCCOCCNC(=O)COCCOCCNC(=O)CC[C@H](NC(=O)CCCCCCCCCCCCCCCCC(=O)O)C(=O)O)C(=O)O)C(=O)N[C@@H](Cc2cccc(c2)CNC(=O)CO4)C(=O)N3)cc1 [Ex-53] | < 1260 | – | – | – | 10 | 14

The next lines start with results.

Ki (PCSK9 [1]; [4]) [pM] | Ki (PCSK9 [2]; [5]) [pM] | Ki (PCSK9 [3]; [6]) [pM] | Compound | Ki (PCSK9 [1]) [pM] | Ki (PCSK9 [2]) [pM] | Ki (PCSK9 [3]) [pM]
< 1260 | 44 | 16 | CCCCCCCCCCCCCCCC(=O)NCC[N+](C)(C)CCOCCOCCC(=O)NC[C@H]1NC(=O)[C@H](C)NC(=O)CCC(=O)N2CCCCCCn3cc(c4cc(F)ccc43)C[C@@H]3NC(=O)[C@H](Cc4cccc(c4)CNC(=O)CO[C@H]4CCN(C3=O)[C@@H]4C(=O)N[C@@H]([C@@H](C)O)C(=O)N[C@@H](Cc3ccc(OC)cc3)C(=O)N3CCC[C@@]3(C)C(=O)NCCc3ccc(cc3)C2)NC1=O [Ex-36] | – | – | –
< 1260 | 13 | 12 | CCCCCCCCCCCCCCCC(=O)NCC[N+](C)(C)CCOCCOCCC(=O)NCCOCCOCC(=O)NCCOCCOCC(=O)NC[C@H]1NC(=O)[C@H](C)NC(=O)CCC(=O)N2CCCCCCn3cc(c4cc(F)ccc43)C[C@@H]3NC(=O)[C@H](Cc4cccc(c4)CNC(=O)CO[C@H]4CCN(C3=O)[C@@H]4C(=O)N[C@@H]([C@@H](C)O)C(=O)N[C@@H](Cc3ccc(OC)cc3)C(=O)N3CCC[C@@]3(C)C(=O)NCCc3ccc(cc3)C2)NC1=O [Ex-38] | – | – | –
< 1260 | 8 | 4 | COc1ccc(C[C@@H]2NC(=O)[C@H]([C@@H](C)O)NC(=O)[C@@H]3[C@@H]4CCN3C(=O)[C@@H]3Cc5cn(c6ccc(F)cc56)CCCCCCN(Cc5ccc(cc5)CCNC(=O)[C@]5(C)CCCN5C2=O)C(=O)CCC(=O)N[C@@H](C)C(=O)N[C@H](CNC(=O)COCCOCC[N+](C)(C)CCNC(=O)COCCOCCNC(=O)COCCOCCNC(=O)CC[C@H](NC(=O)CCCCCCCCCCCCCCCCC(=O)O)C(=O)O)C(=O)N[C@@H](Cc2cccc(c2)CNC(=O)CO4)C(=O)N3)cc1 [Ex-40] | – | – | –
< 1260 | < 6 | 10 | COc1ccc(C[C@@H]2NC(=O)[C@H]([C@@H](C)O)NC(=O)[C@@H]3[C@@H]4CCN3C(=O)[C@@H]3Cc5cn(c6ccc(F)cc56)CCCCCCN(Cc5ccc(cc5)CCNC(=O)[C@]5(C)CCCN5C2=O)C(=O)CCC(=O)N[C@@H](C)C(=O)N[C@H](CNC(=O)COCCOCCNC(=O)COCCOCCNC(=O)CC[C@H](NC(=O)CC[C@H](NC(=O)CCCCCCCCCCCCCCC(=O)O)C(=O)O)C(=O)O)C(=O)N[C@@H](Cc2cccc(c2)CNC(=O)CO4)C(=O)N3)cc1 [Ex-42] | – | – | –
< 1260 | < 6 | 3 | COc1ccc(C[C@@H]2NC(=O)[C@H]([C@@H](C)O)NC(=O)[C@@H]3[C@@H]4CCN3C(=O)[C@@H]3Cc5cn(c6ccc(F)cc56)C/C=C/CCCN(Cc5ccc(cc5)CCNC(=O)[C@]5(C)CCCN5C2=O)C(=O)CCC(=O)N[C@@H](C)C(=O)N[C@H](CNC(=O)CCOCCOCC[N+](C)(C)CCNC(=O)COCCOCCNC(=O)COCCOCCNC(=O)CC[C@H](NC(=O)CC[C@H](NC(=O)CCCCCCCCCCCCCCCCC(=O)O)C(=O)O)C(=O)O)C(=O)N[C@@H](Cc2cccc(c2)CNC(=O)CO4)C(=O)N3)cc1 [Ex-44] | – | – | –
< 1260 | < 6 | 1 | COc1ccc(C[C@@H]2NC(=O)[C@H]([C@@H](C)O)NC(=O)[C@@H]3[C@@H]4CCN3C(=O)[C@@H]3Cc5cn(c6ccc(F)cc56)CCCCCCN(Cc5ccc(cc5)CCNC(=O)[C@]5(C)CCCN5C2=O)C(=O)CCC(=O)N[C@@H](C)C(=O)N[C@H](CNC(=O)CCOCCOCC[N+](C)(C)CCNC(=O)Cc2c(C)n(C(=O)c5ccc(Cl)cc5)c5ccc(OC)cc25)C(=O)N[C@@H](Cc2cccc(c2)CNC(=O)CO4)C(=O)N3)cc1 [Ex-52] | – | – | –
